Test results reported in patent US8435947B2, “Endothelial nitric oxide synthase antagonists and uses thereof for inhibiting oxygen toxicity” (Medical College of Georgia Research Institute, Inc., priority 2010, dated 2013).

Columns and labels:
[1] = test system: purified eNOS; experiment: superoxide generation by purified eNOS, spin-trapping EPR spectroscopy; type: biochemical, human; conditions: peptide 20 μm; for β-actin-induced decrease in superoxide formation: β-actin 2.0 μm
Protocol: eNOS-derived superoxide generation was measured by electron paramagnetic resonance (EPR) spectroscopy and spin trapping as previously described (Sud, N., et al. (2008) Am. J. Physiol. Cell Physiol. 294, C1407-18). 50 μl of reaction mix containing 50 mM HEPES buffer, 1 mM NADPH, 100 μM Larginine, 1 mM CaCl2, 10 μg/ml calmodulin, and 1 μg of purified eNOS were incubated at 37° C. for 60 min. 12.5 μl of spin probe N1-hydroxy-3-methoxy-carbonyl-2,2,5,5-tetramethyl-pyrrolidine (CMH) in EPR buffer were added to the reaction mix. 35 μl of the final reaction mix were loaded into a 50-μl capillary tube and analyzed with a MiniScopeMS200 EPR (Magnetech, Berlin, Germany). A reaction curve was generated by adding 1 unit/ml of xanthine oxidase into 500 μM xanthine solution in buffered PBS (pH 7.4), which contains 5 μM diethyldithiocarbamate and 25 μMm desferrioxamine to inhibit any conversion of superoxide into either hydrogen peroxide or hydroxyl radical via Fenton reaction. Reactions were allowed to proceed at 25° C. for up to 40 min. Following incubation, ˜35 μl of each reaction mixture was loaded into a 50 μl capillary tube and analyzed immediately with EPR spectroscopy. EPR spectra were analyzed for amplitude using […] software (version 2.02, Magnettech). Given that 1 unit of xanthine oxidase will convert 1 μmol of xanthine per minute at 25° C., based on this standard curve, it was calculated that 1 EPR amplitude units is equivalent of 0.35 pmol of superoxide.

[2] = test system: purified eNOS; experiment: NADPH consumption assay with purified eNOS; type: biochemical, human; conditions: peptide 20 μm, β-actin 2.0 μm, absence of BH4
Protocol: (§1) Wild-type and mutant eNOS proteins in COS-7 cells were purified. The catalytic activity of purified eNOS mutant protein was assayed by the measurement ofl-[^3H]citrulline formation from 1-[^3H]arginine as reported previously (Su, Y., et al. (2003) Am. J. Physiol. Cell Physiol. 284, C1542-49). To determine NADPH consumption by eNOS, 0.3 mm NADPH was added to 200 μl of reaction mix containing 1 μg eNOS, 1 μM FAD, 1 μmM FMN, 10 μg/ml calmodulin, 100 μMm L-arginine, 1 mM CaCl2, 10 μg/ml calmodulin, and 2.5 mM ATP. The reaction was monitored at […] for 10 min. NADPH consumption was calculated by using a molar extinction coefficient 6.22 mm^−·cm^−1. The superoxide formation from purified eNOS mutant was measured by spin trapping and EPR spectroscopy.

[3] = test system: purified eNOS; experiment: L-citrulline assay with purified eNOS; type: biochemical, human; conditions: peptide 20 μm; for β-actin-induced increase in L-citrulline production: β-actin 2.0 μm
Protocol: as §1

[4] = test system: purified eNOS; experiment: NO (NOx) production by purified eNOS in vitro; type: biochemical, human; conditions: peptide 20 μm; for β-actin-induced increase in NO production: β-actin 2.0 μm
Protocol: NO production was determined by measuring NOx (NO2 and NO3). Purified eNOS and β-actin were preincubated at room temperature for 30 min and then added to a 50-μl reaction mix containing 50 mM HEPES buffer, 1 mM NADPH, 100 μmM Larginine, 1 mmM CaCl2, 10 μg/ml calmodulin, 4 μM BH4. The mixture was incubated at 37° C. for 30 min. 40 μl of the reaction mix were loaded to the SIEVERS machine for NOx measurement according to standard manufacturer's instructions as previously described (Church, J. E., and Fulton, D. (2006) J. Biol. Chem. 281, 1477-88). For experiments with ABS peptides, β-actin and peptides were preincubated at room temperature for 20 min before eNOS protein was added.

[5] = test system: PAEC; experiment: superoxide radicals in hyperoxic PAEC (DHE fluorescence); type: cell-based, pigs; conditions: 95% oxygen 24 h, tiron 5 mM
Protocol: After hyperoxic exposure, cells were loaded with 10 μM dihydroethidine (DHE) for 30 min. […] The excitation and emission wavelengths were 510 nm and 590 nm.

[6] = test system: COS-7 cells; experiment: superoxide formation in COS-7 cells transfected with wild type or mutant eNOS; type: cell-based; conditions: ETU 100 μm or PEG-SOD
From the text: Human eNOS gene (GenBank™ M93718.1) was cloned into HindIII and XbaI sites of pcDNA3 vector and regarded as wild-type eNOS. […] The site-directed mutagenesis was custom-made by Retrogen (San Diego, Calif.). The sequences of both strands of the gene in the mutated region were verified by using ABI 3730 automated sequencer. Plasmids containing wild-type eNOS cDNA or eNOS mutant cDNA were transfected into COS-7 cells using Lipofectamine LTX with PLUS reagent (Invitrogen, Carlsbad, Calif.) according to the manufacturer's protocol. 48 h after transfection, cells were used for co-immunoprecipitation and assays for NO and superoxide generation.
After wild-type and eNOS mutant transfection, ionomycin (2 μm) was added to the cells. After 30 min of incubation, culture medium was collected and ethanol-precipitated to remove proteins. 50 μl of the reaction mix were loaded to the SIEVERS machine for NOx measurement according to standard manufacturer's instructions (Church, J. E., and Fulton, D. (2006) J. Biol. Chem. 281, 1477-88). In some experiments, N^G-nitro-1-arginine methyl ester (L-NAME), a specific eNOS inhibitor, was used to inhibit NO production. […] For superoxide assay, after incubation with ABS peptides, the spin trap CMH was added to the cells. […] Protein contents in the cell lysates were determined by Lowry's method.

[7] = test system: pulmonary artery endothelial cells; experiment: superoxide formation in endothelial cells (CMH spin trap, EPR); type: cell-based, pigs; conditions: ETU 100 μm
Protocol: (§2) To measure NO production, endothelial cells were incubated with ABS peptides for 3 h. Then ionomycin (2 μM) was added to the cells. After an additional 30 min, culture medium was collected and ethanol-precipitated to remove proteins. 50 μl of the reaction mix were loaded to the SIEVERS machine for NOx measurement as described above. For superoxide assay, after incubation with ABS peptides, the spin trap CMH was added to the cells. Superoxide from cells was trapped for 1 h, and then cells were scraped and subjected to EPR spectroscopy.

[8] = test system: pulmonary artery endothelial cells; experiment: NO production in endothelial cells (NOx, SIEVERS); type: cell-based, pigs
Protocol: After wild-type and eNOS mutant transfection, ionomycin (2 μm) was added to the cells. After 30 min of incubation, culture medium was collected and ethanol-precipitated to remove proteins. 50 μl of the reaction mix were loaded to the SIEVERS machine for NOx measurement according to standard manufacturer's instructions (Church, J. E., and Fulton, D. (2006) J. Biol. Chem. 281, 1477-88). In some experiments, N^G-nitro-1-arginine methyl ester (L-NAME), a specific eNOS inhibitor, was used to inhibit NO production. […] For superoxide assay, after incubation with ABS peptides, the spin trap CMH was added to the cells. Superoxide from cells was trapped for 1 h, and then cells were scraped and subjected to EPR spectroscopy as previously described (Sud, N., et al. (2008) Am. J. Physiol. Cell Physiol. 294, C1407-18). Protein contents in the cell lysates were determined by Lowry's method.
as §2, with “Superoxide from cells was trapped for 1 h, and then cells were scraped and subjected to EPR spectroscopy.” left out

[9] = test system: PAEC; conditions: peptide 20 μM, 95% oxygen 24 h
Protocol: (§3) Third- to sixth-passage cells in monolayer culture were maintained in RPMI 1640 medium containing 4% fetal bovine serum and antibiotics (10 units/ml penicillin, 100 μg/ml streptomycin, 20 μg/ml gentamicin, and 2 μg/ml Fungizone) and were used 2 or 3 days after confluence.

[10] = test system: pulmonary artery endothelial cells; experiment: endothelial monolayer wound repair; type: cell-based, pigs; conditions: PEG-SOD 100 units/ml, NOC-18 10 μm
Protocol: Pulmonary artery endothelial cells were incubated with ABS peptides for 3 h. Then endothelial monolayer wound repair in the absence and presence of PEG-SOD (100 units/ml) and NOC-18 (10 μm) was measured as previously reported (Su, Y., et al. (2006) FASEB J. 20, 1443-51). Endothelial monolayer wound repair distance was expressed as the width of the wound before treatment subtracted by that after treatment.

[11] = biological target: T1, F-actin (polymerized human β-actin) (Homo sapiens, UniProt P60709); experiment: F-actin binding spin-down assay; conditions: peptide 10 μM, 23 μM F-actin, 30 min, 150,000×g 2 h
T1 construct: purchased Cytoskeleton, Inc. (Denver, Co)
Protocol: The binding capacities of the peptides to β-actin were measured by using an F-actin binding spin-down assay kit from Cytoskeleton, Inc. (Denver, Co). Monomeric human β-actin was polymerized into F-actin in F-actin buffer (5 mM Tris-HCl, pH 7.8, 1 mM ATP, 0.5 mM DTT, 0.2 mmM CaCl2, 0.2 mM MgCl2, and 100 mM KCl) for 1 h at 24° C. ABS peptides at final concentrations of 10 μM were incubated alone or with 23 μM F-actin in F-actin buffer for 30 min in a total volume of 50 μl. The mixtures were centrifuged at 150,000×g for 2 h at 24° C. in a Beckman TLA-100 rotor. Supernatant and pellet fractions were resuspended in loading buffer and subjected to SDS-PAGE. The gel was stained with Coomassie Blue. The density of the band was measured using Software Image J.
Actin binding capabilities of the synthesized ABS peptides corresponding to putative ABSs in eNOS were evaluated by the F-actin binding spin-down assay. ABS peptides 326 (P326), control peptides, ABS peptides 492 (P492), and ABS peptides 245 (P245) at final concentrations of 10 μm were incubated for 30 min alone or with 23 μm F-actin in F-actin buffer containing 2.5 μM ATP and 2.5 μM DTT. After high speed centrifugation at 150,000×g for 2 h, the supernatants and pellets were subjected to SDS-PAGE analysis.

[12] = test system: PAEC; experiment: peroxynitrite formation in hyperoxic PAEC (APF fluorescence); type: cell-based, pigs; conditions: 95% oxygen 24 h, uric acid 100 μM
Protocol: as §3
To reduce β-actin availability to eNOS, the β-actin mRNA was silenced using its siRNA as previously reported by us (Kondrikov, D., et al. (2006) Am. J. Physiol. Lung Cell Mol. Physiol. 290, L41-L50).

For LGLRWYAL [ABS peptide 326], the “superoxide formation from eNOS, peptide per se” value ([1]; without β-actin) was “did not affect NO and L-citrulline production and superoxide formation”, the “β-actin-induced decrease in superoxide formation” value [1] was “prevented” and the “β-actin-induced decrease in NADPH consumption” value [2] was “prevented β-actin-induced decrease in NADPH consumption”. The “L-citrulline production from eNOS, peptide per se” value ([3]; without β-actin) was “did not affect NO and L-citrulline production and superoxide formation”, the “β-actin-induced increase in L-citrulline production” value [3] was “prevented β-actin-induced increase in NO and L-citrulline production” and the “NO production from eNOS, peptide per se” value ([4]; without β-actin) was “did not affect NO and L-citrulline production and superoxide formation”. The “β-actin-induced increase in NO production” value [4] was “prevented β-actin-induced increase in NO and L-citrulline production”.

In the case of `O=S(=O)(O)c1cc(O)c(O)c(S(=O)(=O)O)c1` [tiron], the “increase in DHE fluorescence intensity (superoxide radical) in hyperoxic PAEC” value [5] was “prevented the increase in the fluorescence intensity in hyperoxic PAEC”.

In the case of `CCSC(=N)N` [ETU, 2-ethyl-2-thiopseudourea, reference compound], the “superoxide generated from COS-7 cells, wild type versus eNOS mutant, in the presence of the agent” value [6] was “the amounts of superoxide generated from COS-7 cells containing wild type and eNOS mutant were comparable” and the “P326TAT-induced increase in superoxide formation” value [7] was “inhibited P326TAT-induced increase in superoxide formation”.

In the case of `COC(=O)[C@@H](N)CCCNC(=N)N[N+](=O)[O-]` [L-NAME, N^G-nitro-1-arginine methyl ester, reference compound], the “inhibition of NO production” value [8] was 90%.

For “RKKRRQRRRAAGARAYAA [control peptide TAT, reference compound]”, the “tyrosine nitration of proteins at 250, 100, 75, and 60 kDa, hyperoxia versus normoxia” value [9] was “hyperoxia induced the increases in tyrosine nitration of proteins”.

For `NCCN(CCN)/[N+]([O-])=N/O` [NOC-18, reference compound], the “P326TAT-induced decrease in monolayer wound repair” value [10] was “prevented P326TAT-induced decrease in monolayer wound repair”.

With “NSQLVRYAGYRQQDGSVRGDPANVEITEL [ABS peptide 245]” the “peptide pulled down to the pellets with F-actin” value [11] was “not pulled down to the pellets with F-actin”.

For `O=c1[nH]c(=O)c2[nH]c(=O)[nH]c2[nH]1` [uric acid, reference compound], the “hyperoxia-induced increase in APF fluorescence intensity (peroxynitrite)” value [12] was “prevented hyperoxia-induced increase in the fluorescence intensity”.

With “AGARAYAA [control peptide for peptide 326, reference compound]” the “β-actin-induced decrease in superoxide formation” value [1] was “did not affect β-actin-induced changes in the production of NO, L-citrulline, and superoxide from eNOS”, the “β-actin-induced increase in L-citrulline production” value [3] was “did not affect β-actin-induced changes in the production of NO, L-citrulline, and superoxide from eNOS” and the “β-actin-induced increase in NO production” value [4] was “did not affect β-actin-induced changes in the production of NO, L-citrulline, and superoxide from eNOS”.
